What all share (assay): biochemical
What all share (design): KINOMEscan scanMAX active site-directed competition binding assay, percent of control, 468 kinases
What all share (settings): competition binding, percent of control

The target of one assay is CDK7 (Homo sapiens, UniProt P50613). An outline of the steps:
(§1)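 Single-concentration screen (100 μM S-carvone) in a competition binding panel of 468 human kinases (KINOMEscan scanMAX); results given as percent of control, hit cutoff 35%.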

For a further assay, the target named is CDKL2 (Homo sapiens, UniProt Q92772). In outline:
as §1

The next assay deals with T1, DLK (Homo sapiens, UniProt Q12852).
T1 construct: gene MAP3K12
T1 sequence (Q12852 whole entry): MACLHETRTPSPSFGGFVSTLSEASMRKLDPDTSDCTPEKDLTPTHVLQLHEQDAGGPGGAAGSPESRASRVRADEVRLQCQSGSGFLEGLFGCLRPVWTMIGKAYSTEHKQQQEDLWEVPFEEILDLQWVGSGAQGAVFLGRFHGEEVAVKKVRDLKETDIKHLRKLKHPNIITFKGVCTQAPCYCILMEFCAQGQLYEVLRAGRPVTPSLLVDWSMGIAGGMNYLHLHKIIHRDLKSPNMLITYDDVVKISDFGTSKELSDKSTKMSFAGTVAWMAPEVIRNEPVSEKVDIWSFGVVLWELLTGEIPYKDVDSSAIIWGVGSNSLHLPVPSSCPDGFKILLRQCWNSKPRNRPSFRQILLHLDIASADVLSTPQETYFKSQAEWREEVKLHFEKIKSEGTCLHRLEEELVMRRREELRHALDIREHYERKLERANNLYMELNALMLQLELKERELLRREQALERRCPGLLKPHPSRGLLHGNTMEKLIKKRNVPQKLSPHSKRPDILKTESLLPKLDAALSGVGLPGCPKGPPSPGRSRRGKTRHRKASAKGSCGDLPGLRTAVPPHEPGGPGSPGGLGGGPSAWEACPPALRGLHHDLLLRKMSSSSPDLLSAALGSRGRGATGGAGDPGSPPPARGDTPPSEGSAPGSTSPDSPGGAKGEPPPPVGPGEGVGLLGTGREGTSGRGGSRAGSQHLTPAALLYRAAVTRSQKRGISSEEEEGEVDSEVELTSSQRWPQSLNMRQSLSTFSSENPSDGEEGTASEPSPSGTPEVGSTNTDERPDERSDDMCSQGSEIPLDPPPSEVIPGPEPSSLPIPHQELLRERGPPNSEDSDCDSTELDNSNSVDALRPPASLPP
In outline:
as §1

The next assay concerns the target T2, DMPK2 (Homo sapiens, UniProt Q6DT37).
T2 construct: gene CDC42BPG
In outline: as §1

The target in the next assay is EGFR (Homo sapiens, UniProt P00533). An outline of the steps:
as §1

The target of another assay is EIF2AK1 (Homo sapiens, UniProt Q9BQI3). In outline:
as §1

A further assay addresses FGFR2 (Homo sapiens, UniProt P21802). In outline: as §1
Another assay concerns the target T3, IKK-beta (Homo sapiens, UniProt O14920).
T3 construct: gene IKBKB
In outline: as §1

The target in assay [1] is T4, JAK3(JH1domain-catalytic) (Homo sapiens, UniProt P52333).
T4 construct: JH1domain-catalytic
An outline of the steps:
as §1

Another assay addresses MKNK1 (Homo sapiens, UniProt Q9BUB5). An outline of the steps: as §1
The target of a further assay is T5, NDR1 (Homo sapiens, UniProt Q15208).
T5 construct: gene STK38
In outline: as §1

A further assay deals with T6, PAK7 (Homo sapiens, UniProt Q9P286).
T6 construct: gene PAK5
T6 sequence (Q9P286 whole entry): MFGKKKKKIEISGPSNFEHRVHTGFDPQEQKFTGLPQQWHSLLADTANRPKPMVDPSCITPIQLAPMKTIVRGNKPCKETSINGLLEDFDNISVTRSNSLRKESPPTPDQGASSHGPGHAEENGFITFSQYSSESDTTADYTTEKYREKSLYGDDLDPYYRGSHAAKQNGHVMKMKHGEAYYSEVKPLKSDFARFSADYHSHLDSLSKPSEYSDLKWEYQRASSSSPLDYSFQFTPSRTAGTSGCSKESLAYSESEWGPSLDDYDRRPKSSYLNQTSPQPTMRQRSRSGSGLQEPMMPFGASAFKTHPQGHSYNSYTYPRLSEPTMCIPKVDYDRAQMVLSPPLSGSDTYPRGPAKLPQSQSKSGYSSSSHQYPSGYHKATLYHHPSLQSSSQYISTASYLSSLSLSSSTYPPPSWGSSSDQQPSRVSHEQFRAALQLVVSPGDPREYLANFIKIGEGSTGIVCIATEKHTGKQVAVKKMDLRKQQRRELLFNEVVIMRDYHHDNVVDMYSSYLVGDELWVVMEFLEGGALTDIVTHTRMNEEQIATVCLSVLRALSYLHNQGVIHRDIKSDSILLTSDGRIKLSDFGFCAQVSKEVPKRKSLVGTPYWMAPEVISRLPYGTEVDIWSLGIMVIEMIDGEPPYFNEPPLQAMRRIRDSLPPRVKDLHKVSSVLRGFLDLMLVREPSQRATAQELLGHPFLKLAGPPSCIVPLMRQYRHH
An outline of the steps: as §1

Another assay deals with PHKG2 (Homo sapiens, UniProt P15735). An outline of the steps: as §1
The target of the next assay is PIK3CA(E545K) (Homo sapiens, UniProt P42336, E545K). In outline: as §1
PIK3CA(E545K), sequence (P42336 whole entry E545K): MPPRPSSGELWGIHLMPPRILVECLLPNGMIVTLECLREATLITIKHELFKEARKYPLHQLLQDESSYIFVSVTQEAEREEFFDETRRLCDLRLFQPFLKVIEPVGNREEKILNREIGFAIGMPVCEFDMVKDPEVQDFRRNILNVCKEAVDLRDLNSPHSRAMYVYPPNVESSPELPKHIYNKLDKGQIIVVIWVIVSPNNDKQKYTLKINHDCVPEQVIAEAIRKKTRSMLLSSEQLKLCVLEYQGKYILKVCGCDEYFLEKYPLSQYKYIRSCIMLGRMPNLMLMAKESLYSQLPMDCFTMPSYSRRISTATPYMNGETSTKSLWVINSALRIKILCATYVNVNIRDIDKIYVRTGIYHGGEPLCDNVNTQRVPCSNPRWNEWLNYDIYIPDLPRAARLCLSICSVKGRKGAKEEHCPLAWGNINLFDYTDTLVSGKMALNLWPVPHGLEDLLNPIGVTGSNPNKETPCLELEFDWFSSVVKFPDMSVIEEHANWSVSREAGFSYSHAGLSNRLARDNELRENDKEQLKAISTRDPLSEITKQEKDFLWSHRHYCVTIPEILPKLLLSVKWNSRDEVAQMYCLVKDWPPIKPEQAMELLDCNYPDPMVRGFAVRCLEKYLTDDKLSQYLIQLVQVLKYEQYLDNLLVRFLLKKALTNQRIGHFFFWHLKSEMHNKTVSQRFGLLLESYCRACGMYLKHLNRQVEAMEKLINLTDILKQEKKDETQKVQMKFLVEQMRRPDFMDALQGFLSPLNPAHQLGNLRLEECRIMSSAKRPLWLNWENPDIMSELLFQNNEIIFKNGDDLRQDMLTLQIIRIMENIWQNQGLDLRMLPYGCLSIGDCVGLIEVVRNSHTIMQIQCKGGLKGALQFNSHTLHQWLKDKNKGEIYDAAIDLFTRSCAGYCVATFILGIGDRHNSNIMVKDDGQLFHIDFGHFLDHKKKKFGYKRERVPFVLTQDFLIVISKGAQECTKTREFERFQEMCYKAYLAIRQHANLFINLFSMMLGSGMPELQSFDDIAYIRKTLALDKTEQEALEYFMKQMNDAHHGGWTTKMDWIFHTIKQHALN
The target in the next assay is PIM1 (Homo sapiens, UniProt P11309). In outline:
as §1

The target in the next assay is RET(V804L) (Homo sapiens, UniProt P07949, V804L). An outline of the steps:
as §1

In a further assay the target is RET(V804M) (Homo sapiens, UniProt P07949, V804M). An outline of the steps:
as §1

The target of the next assay is ROCK2 (Homo sapiens, UniProt O75116). An outline of the steps:
as §1

In assay [2] the target is T7, RPS6KA4(Kin.Dom.1-N-terminal) (Homo sapiens, UniProt O75676).
T7 construct: Kin.Dom.1-N-terminal
In outline:
as §1

Another assay addresses ULK3 (Homo sapiens, UniProt Q6PHR2). In outline:
as §1

Another assay concerns the target WNK2 (Homo sapiens, UniProt Q9Y3S1). In outline:
as §1

Molecules are shown by their SMILES.

T3 sequence (O14920 whole entry): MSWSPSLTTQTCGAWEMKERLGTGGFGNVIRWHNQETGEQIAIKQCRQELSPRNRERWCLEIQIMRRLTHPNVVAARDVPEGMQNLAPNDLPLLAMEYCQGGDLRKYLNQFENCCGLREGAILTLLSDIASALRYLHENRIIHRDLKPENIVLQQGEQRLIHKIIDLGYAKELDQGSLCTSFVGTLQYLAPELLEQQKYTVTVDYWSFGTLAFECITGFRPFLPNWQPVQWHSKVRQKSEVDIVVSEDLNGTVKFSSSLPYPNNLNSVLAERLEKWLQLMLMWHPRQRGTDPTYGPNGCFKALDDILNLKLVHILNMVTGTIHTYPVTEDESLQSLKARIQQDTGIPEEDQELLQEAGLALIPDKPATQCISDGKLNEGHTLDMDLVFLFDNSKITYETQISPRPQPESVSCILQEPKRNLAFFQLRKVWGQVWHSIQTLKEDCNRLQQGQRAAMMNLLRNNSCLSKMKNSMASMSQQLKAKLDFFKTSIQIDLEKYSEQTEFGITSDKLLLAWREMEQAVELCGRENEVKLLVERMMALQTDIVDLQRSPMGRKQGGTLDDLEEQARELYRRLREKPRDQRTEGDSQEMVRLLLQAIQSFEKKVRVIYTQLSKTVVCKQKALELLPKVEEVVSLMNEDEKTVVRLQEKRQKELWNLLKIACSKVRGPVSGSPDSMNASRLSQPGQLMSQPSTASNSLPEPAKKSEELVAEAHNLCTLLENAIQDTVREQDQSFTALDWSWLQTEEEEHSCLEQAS
PIM1, sequence (P11309 whole entry): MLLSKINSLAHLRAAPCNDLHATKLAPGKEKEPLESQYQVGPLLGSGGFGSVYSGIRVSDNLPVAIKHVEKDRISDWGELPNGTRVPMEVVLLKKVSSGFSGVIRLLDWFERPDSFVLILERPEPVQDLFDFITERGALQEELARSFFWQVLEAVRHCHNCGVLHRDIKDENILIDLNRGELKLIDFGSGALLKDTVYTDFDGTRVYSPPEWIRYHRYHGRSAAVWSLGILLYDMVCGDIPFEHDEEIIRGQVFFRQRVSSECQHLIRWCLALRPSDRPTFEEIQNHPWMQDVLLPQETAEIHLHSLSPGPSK
CDKL2, sequence (Q92772 whole entry): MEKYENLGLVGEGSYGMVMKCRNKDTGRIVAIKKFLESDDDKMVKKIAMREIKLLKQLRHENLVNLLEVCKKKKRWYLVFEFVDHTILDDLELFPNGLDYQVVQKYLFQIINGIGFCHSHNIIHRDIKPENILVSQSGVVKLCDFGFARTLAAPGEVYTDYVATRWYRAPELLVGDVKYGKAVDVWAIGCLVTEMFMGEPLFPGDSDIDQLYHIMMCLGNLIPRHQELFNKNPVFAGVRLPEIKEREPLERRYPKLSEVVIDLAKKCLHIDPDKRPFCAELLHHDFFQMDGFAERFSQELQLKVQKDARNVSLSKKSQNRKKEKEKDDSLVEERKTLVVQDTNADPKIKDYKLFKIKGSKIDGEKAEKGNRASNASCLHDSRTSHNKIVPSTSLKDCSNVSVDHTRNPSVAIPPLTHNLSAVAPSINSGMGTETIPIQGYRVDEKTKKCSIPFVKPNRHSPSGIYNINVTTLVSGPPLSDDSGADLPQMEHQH
FGFR2, sequence (P21802 whole entry): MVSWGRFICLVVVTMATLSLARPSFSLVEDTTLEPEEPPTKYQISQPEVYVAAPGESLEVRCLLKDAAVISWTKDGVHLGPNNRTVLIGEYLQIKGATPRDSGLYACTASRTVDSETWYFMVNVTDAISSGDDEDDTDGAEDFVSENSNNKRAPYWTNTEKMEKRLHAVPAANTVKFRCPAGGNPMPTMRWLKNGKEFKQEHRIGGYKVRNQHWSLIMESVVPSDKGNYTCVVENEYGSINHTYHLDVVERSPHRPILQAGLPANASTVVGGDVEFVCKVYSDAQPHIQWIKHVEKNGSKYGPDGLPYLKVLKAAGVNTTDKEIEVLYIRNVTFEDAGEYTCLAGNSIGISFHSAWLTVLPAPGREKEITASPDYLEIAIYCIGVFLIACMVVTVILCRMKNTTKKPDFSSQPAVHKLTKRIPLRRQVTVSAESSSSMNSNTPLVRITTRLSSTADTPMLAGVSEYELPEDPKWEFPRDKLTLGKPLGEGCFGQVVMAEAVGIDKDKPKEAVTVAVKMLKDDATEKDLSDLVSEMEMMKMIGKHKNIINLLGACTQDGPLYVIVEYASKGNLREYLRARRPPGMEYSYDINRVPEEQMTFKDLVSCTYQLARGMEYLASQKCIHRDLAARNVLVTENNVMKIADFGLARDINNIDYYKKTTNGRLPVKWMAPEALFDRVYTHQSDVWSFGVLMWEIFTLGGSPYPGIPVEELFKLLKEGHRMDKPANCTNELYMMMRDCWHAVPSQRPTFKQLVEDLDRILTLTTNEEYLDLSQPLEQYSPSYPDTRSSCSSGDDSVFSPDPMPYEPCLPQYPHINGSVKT

Regarding `C=C(C)[C@H]1CC=C(C)C(=O)C1` [S-carvone], the remaining binding at 100 µM was found to be 65% on CDK7; 85% on CDKL2; 88% at DLK; 83% at DMPK2; 79% at EGFR; 75% at EIF2AK1. Further, the remaining binding at 100 µM on FGFR2 was determined as 80%; at IKK-beta, 72%; in [1], 90%; on MKNK1 it was 62%; at NDR1 it was 77%; on PAK7, 100%. Further, the remaining binding at 100 µM at PHKG2 stood at 84%; at PIK3CA(E545K), 63%; at PIM1, 77%; at RET(V804L) it was 87%; at RET(V804M) it was 96%; on ROCK2, 66%. Also, the remaining binding at 100 µM in [2] came to 87%; at ULK3 it was 77%; on WNK2, 77%.

The record behind these values is article PMC10174618, “Monoterpenoid aryl hydrocarbon receptor allosteric antagonists protect against ultraviolet skin damage in female mice” (Nature Communications, 2023).
